Laboratory results reported in ChEMBL document CHEMBL1255486, “Effect of vicriviroc on the QT/corrected QT interval and central nervous system in healthy subjects” (Antimicrob Agents Chemother, 2010).

Legend:
Homo sapiens [1] = test: Toxicity in healthy human assessed as headache at 250 […], po administered as single dose; type: organism-based; parameters: route oral; conditions: in vivo
[2] = Tmax in healthy human at 30 mg/kg, po after 10 days; type: ADME, organism-based; parameters: dose 30 mg/kg, route oral; conditions: in vivo
Homo sapiens [3] = test: Toxicity in healthy human assessed as fatigue at 300 […], po administered as single dose; type: organism-based; parameters: route oral; conditions: in vivo
[4] = Tmax in healthy human at 250 mg/kg, po once daily for 7 days measured after 1 day of last dose; type: ADME, organism-based; parameters: dose 250 mg/kg, route oral; conditions: in vivo
[5] = Tmax in healthy human at 150 […], po once daily for 7 days; type: ADME, organism-based; parameters: dose 150 mg/kg, route oral; conditions: in vivo
[6] = Tmax in healthy human at 250 mg/kg, po administered as single dose after 1 day; type: ADME, organism-based; parameters: dose 250 mg/kg, route oral; conditions: in vivo
Homo sapiens [7] = test: Toxicity in healthy human assessed as nausea at 300 […], po administered as single dose; type: organism-based; parameters: route oral; conditions: in vivo
Homo sapiens [8] = test: Toxicity in healthy human assessed as pollakiuria at 150 […], po once daily for 7 days; type: organism-based; parameters: route oral; conditions: in vivo, 168 h
Homo sapiens [9] = test: Toxicity in healthy human assessed as headache at 200 […], po once daily for 7 days; type: organism-based; parameters: route oral; conditions: in vivo, 168 h
[10] = AUC (0 to 24 hrs) in healthy human at 250 mg/kg, po once daily for 7 days; type: ADME, organism-based; parameters: time < 24 hr, dose 250 mg/kg, route oral; conditions: plasma
[11] = AUC (0 to 24 hrs) in healthy human at 150 […], po once daily for 7 days measured after 1 day of last dose; type: ADME, organism-based; parameters: time < 24 hr, dose 150 mg/kg, route oral; conditions: plasma
[12] = Cmax in healthy human at 300 mg/kg, po administered as single dose after 1 day; type: ADME, organism-based; parameters: dose 300 mg/kg, route oral; conditions: in vivo
[13] = Tmax in healthy human at 250 mg/kg, po once daily for 7 days; type: ADME, organism-based; parameters: dose 250 mg/kg, route oral; conditions: in vivo
[14] = Cmax in healthy human at 150 […], po after 10 days; type: ADME, organism-based; parameters: dose 150 mg/kg, route oral; conditions: in vivo
[15] = Tmax in healthy human at 200 mg/kg, po once daily for 7 days measured after 1 day of last dose; type: ADME, organism-based; parameters: dose 200 mg/kg, route oral; conditions: in vivo
[16] = Cmax in healthy human at 30 mg/kg, po after 10 days; type: ADME, organism-based; parameters: dose 30 mg/kg, route oral; conditions: in vivo
Homo sapiens [17] = test: Cardiotoxicity in healthy human assessed as change in corrected QT interval at 30 mg/kg, po after 10 days by ECG; type: toxicity, organism-based; parameters: dose 30 mg/kg, route oral; conditions: in vivo, 240 h
Homo sapiens [18] = test: Cardiotoxicity in healthy human assessed as change in corrected QT interval at 150 […], po after 10 days by ECG; type: toxicity, organism-based; parameters: dose 150 mg/kg, route oral; conditions: in vivo, 240 h
Homo sapiens [19] = test: Toxicity in healthy human assessed as nausea at 200 […], po administered as single dose; type: organism-based; parameters: route oral; conditions: in vivo
[20] = AUC (0 to infinity) in healthy human at 200 mg/kg, po administered as single dose after 1 day; type: ADME, organism-based; parameters: time infinity, dose 200 mg/kg, route oral; conditions: plasma
Homo sapiens [21] = test: Toxicity in healthy human assessed as pollakiuria at 250 […], po once daily for 7 days; type: organism-based; parameters: route oral; conditions: in vivo, 168 h
[22] = Cmax in healthy human at 250 mg/kg, po once daily for 7 days; type: ADME, organism-based; parameters: dose 250 mg/kg, route oral; conditions: in vivo
[23] = Cmax in healthy human at 150 […], po once daily for 7 days; type: ADME, organism-based; parameters: dose 150 mg/kg, route oral; conditions: in vivo
[24] = AUC (0 to 24 hrs) in healthy human at 150 […], po after 10 days; type: ADME, organism-based; parameters: time < 24 hr, dose 150 mg/kg, route oral; conditions: plasma
[25] = Tmax in healthy human at 150 […], po after 10 days; type: ADME, organism-based; parameters: dose 150 mg/kg, route oral; conditions: in vivo
[26] = Cmax in healthy human at 200 mg/kg, po administered as single dose after 1 day; type: ADME, organism-based; parameters: dose 200 mg/kg, route oral; conditions: in vivo
[27] = Tmax in healthy human at 300 mg/kg, po administered as single dose after 1 day; type: ADME, organism-based; parameters: dose 300 mg/kg, route oral; conditions: in vivo
Homo sapiens [28] = test: Toxicity in healthy human assessed as pollakiuria at 200 […], po once daily for 7 days; type: organism-based; parameters: route oral; conditions: in vivo, 168 h
Homo sapiens [29] = test: Toxicity in healthy human assessed as puncture site pain at 250 […], po once daily for 7 days; type: organism-based; parameters: route oral; conditions: in vivo, 168 h
[30] = Tmax in healthy human at 200 mg/kg, po administered as single dose after 1 day; type: ADME, organism-based; parameters: dose 200 mg/kg, route oral; conditions: in vivo
Homo sapiens [31] = test: Toxicity in healthy human assessed as nausea at 250 […], po once daily for 7 days; type: organism-based; parameters: route oral; conditions: in vivo, 168 h
Homo sapiens [32] = test: Toxicity in healthy human assessed as headache at 150 […], po once daily for 7 days; type: organism-based; parameters: route oral; conditions: in vivo, 168 h
[33] = AUC (0 to 24 hrs) in healthy human at 250 mg/kg, po once daily for 7 days measured after 1 day of last dose; type: ADME, organism-based; parameters: time < 24 hr, dose 250 mg/kg, route oral; conditions: plasma
Homo sapiens [34] = test: Toxicity in healthy human assessed as fatigue at 200 […], po administered as single dose; type: organism-based; parameters: route oral; conditions: in vivo
Homo sapiens [35] = test: Toxicity in healthy human assessed as pollakiuria at 200 […], po administered as single dose; type: organism-based; parameters: route oral; conditions: in vivo
[36] = Cmax in healthy human at 250 mg/kg, po once daily for 7 days measured after 1 day of last dose; type: ADME, organism-based; parameters: dose 250 mg/kg, route oral; conditions: in vivo

COC[C@@H](c1ccc(C(F)(F)F)cc1)N1CCN(C2(C)CCN(C(=O)c3c(C)ncnc3C)CC2)C[C@@H]1C [VICRIVIROC]
Activity (Homo sapiens [1]): 38%
Tmax [2]: 2 h
Activity (Homo sapiens [3]): 0%
Tmax [4]: 1.5 h
Tmax [5]: 1.5 h
Tmax [6]: 2 h
Activity (Homo sapiens [7]): 13%
Activity (Homo sapiens [8]): 38%
Activity (Homo sapiens [9]): 13%
AUC at 24 h [10]: 8750 ng·h/mL
AUC at 24 h [11]: 3260 ng·h/mL
Cmax [12]: 1130 ng/mL
Tmax [13]: 2 h
Cmax [14]: 1900 ng/mL
Tmax [15]: 1.75 h
Cmax [16]: 403 ng/mL
Activity (Homo sapiens [17]): Non-toxic
Activity (Homo sapiens [18]): Non-toxic
Activity (Homo sapiens [19]): 0%
AUC(0-inf) [20]: 6050 ng·h/mL
Activity (Homo sapiens [21]): 0%
Cmax [22]: 1040 ng/mL
Cmax [23]: 649 ng/mL
AUC at 24 h [24]: 32200 ng·h/mL
Tmax [25]: 1.5 h
Cmax [26]: 731 ng/mL
Tmax [27]: 2.9 h
Activity (Homo sapiens [28]): 13%
Activity (Homo sapiens [29]): 17%
Tmax [30]: 2 h
Activity (Homo sapiens [31]): 13%
Activity (Homo sapiens [32]): 50%
AUC at 24 h [33]: 5050 ng·h/mL
Activity (Homo sapiens [34]): 0%
Activity (Homo sapiens [35]): 0%
Cmax [36]: 791 ng/mL
